Measured values reported in patent US9376392B2, “2-(tert-butoxy)-2-(7-methylquinolin-6-yl) acetic acid derivatives for treating AIDS” (Gilead Sciences, Inc., priority 2012, dated 2016).

System: HIV-IIIb (MT-4 cells)
Assay: Test A: Antiviral Assays in MT4 Cells
Assay type: cell-based
Conditions: MT4, 120 h, MT-4 cells infected with HIV-IIIb, 5 days of incubation, CellTiter-Glo readout
Procedure: The antiviral properties of a compound disclosed herein may be determined using Test A described below.
Test A: Antiviral Assays in MT4 Cells
For the antiviral assay utilizing MT-4 cells, 0.4 μL of […] test concentration of 3-fold serially diluted compound in DMSO was added to 40 μL of cell growth medium (RPMI 1640, 10% FBS, 1% penicillin/Streptomycin, 1% L-Glutamine, 1% HEPES) in each well of 384-well assay plates (10 concentrations) in quadruplicate.
1 mL aliquots of 2×10e6 MT-4 cells are pre-infected for 1 and 3 hrs respectively, @ 37° C. with 25 μL (MT4) or of either cell growth medium (mock-infected) or a fresh 1:250 dilution of an HIV-IIIb concentrated ABI stock (0.004 m.o.i. for MT4 cells). Infected and uninfected cells are diluted in cell growth medium and 35 μL of 2000 (for MT4) cells is added to each well of the assay plates.
Assay plates were then incubated in a 37° C. incubator. After 5 days of incubation, […] 2× concentrated CellTiter-Glo™ Reagent (catalog #G7573, Promega Biosciences, Inc., Madison, Wis.) was added to each well of the assay plate. Cell lysis was carried out by incubating at room temperature for 2-3 min and then chemiluminescence was read using the Envision reader (PerkinElmer).

`Cc1cc2c(ccc(=O)n2Cc2ccc3c(cnn3C)c2)c(-c2ccc3c4c(ccnc24)CCO3)c1[C@H](OC(C)(C)C)C(=O)O` (atropisomer, axis not shown) [Example 29, (S)-2-tert-Butoxy-2-((R)-5-(2,3-dihydropyrano[4,3,2-de]quinolin-7-yl)-7-methyl-1-((1-methyl-1H-indazol-5-yl)methyl)-2-oxo-1,2-dihydroquinolin-6-yl)acetic acid] was tested. Which EC50 did it give?
The EC50 was 85.5 nM.

For `Cc1cc2c(ccc(=O)n2Cc2ccc(C(F)(F)F)cc2)c(-c2ccc3c4c(ccnc24)CCO3)c1[C@H](OC(C)(C)C)C(=O)O` (atropisomer, axis not shown) [Example 11, (S)-2-tert-Butoxy-2-((R)-5-(2,3-dihydropyrano[4,3,2-de]quinolin-7-yl)-7-methyl-2-oxo-1-(4-(trifluoromethyl)benzyl)-1,2-dihydroquinolin-6-yl)acetic acid], which EC50 is on record?
The EC50 was 983 nM.

Which EC50 does the source give for `Cc1cc2c(ccc(=O)n2Cc2cccnc2)c(-c2ccc3c4c(ccnc24)CCO3)c1[C@H](OC(C)(C)C)C(=O)O` (atropisomer, axis not shown) [Example 22, (S)-2-tert-Butoxy-2-((R)-5-(2,3-dihydropyrano[4,3,2-de]quinolin-7-yl)-7-methyl-2-oxo-1-(pyridin-3-ylmethyl)-1,2-dihydroquinolin-6-yl)acetic acid] here?
The EC50 was 318 nM.

With `Cc1cc2c(ccc(=O)n2Cc2cccc(OC(F)(F)F)c2)c(-c2ccc3c4c(ccnc24)CCO3)c1[C@H](OC(C)(C)C)C(=O)O` (atropisomer, axis not shown) [Example 18, (S)-2-tert-Butoxy-2-((R)-5-(2,3-dihydropyrano[4,3,2-de]quinolin-7-yl)-7-methyl-2-oxo-1-(3-(trifluoromethoxy)benzyl)-1,2-dihydroquinolin-6-yl)acetic acid] as the molecule, how does the EC50 read?
Its EC50 is 185 nM.

Which EC50 does the source give for `Cc1cc2nc(OCc3ccc(S(C)(=O)=O)cc3)ccc2c(-c2ccc3c4c(ccnc24)CCO3)c1[C@H](OC(C)(C)C)C(=O)O` (atropisomer, axis not shown) [Example 9, (S)-2-tert-Butoxy-2-((R)-5-(2,3-dihydropyrano[4,3,2-de]quinolin-7-yl)-7-methyl-2-(4-(methylsulfonyl)benzyloxy)quinolin-6-yl)acetic acid] here?
Its EC50 is 21.2 nM.

With `Cc1cccc(-n2c(=O)ccc3c(-c4ccc5c6c(ccnc46)CCO5)c([C@H](OC(C)(C)C)C(=O)O)c(C)cc32)c1` (atropisomer, axis not shown) [Example 35, (S)-2-tert-Butoxy-2-((R)-5-(2,3-dihydropyrano[4,3,2-de]quinolin-7-yl)-7-methyl-2-oxo-1-m-tolyl-1,2-dihydroquinolin-6-yl)acetic acid] as the molecule, how does the EC50 read?
The EC50 was 1470 nM.

Which EC50 does the source give for `Cc1cc2c(ccc(=O)n2Cc2cnccn2)c(-c2ccc3c4c(ccnc24)CCO3)c1[C@H](OC(C)(C)C)C(=O)O` (atropisomer, axis not shown) [Example 23, (S)-2-tert-Butoxy-2-((R)-5-(2,3-dihydropyrano[4,3,2-de]quinolin-7-yl)-7-methyl-2-oxo-1-(pyrazin-2-ylmethyl)-1,2-dihydroquinolin-6-yl)acetic acid] here?
The EC50 was 383 nM.

Which EC50 does the source give for `Cc1ccc2c(-c3ccc4c5c(ccnc35)CCO4)c([C@H](OC(C)(C)CCc3ccccc3)C(=O)O)c(C)cc2n1` (atropisomer, axis not shown) [Example 38, (2S)-2-((R)-5-(2,3-Dihydropyrano[4,3,2-de]quinolin-7-yl)-2,7-dimethylquinolin-6-yl)-2-(2-methyl-4-phenylbutan-2-yloxy)acetic acid] here?
The EC50 was 38.1 nM.

`Cc1cc2c(ccc3cnnn32)c(-c2ccc3c4c(ccnc24)CCO3)c1[C@H](OC(C)(C)C)C(=O)O` (atropisomer, axis not shown) [Example 55, (S)-2-tert-butoxy-2-((R)-6-(2,3-dihydropyrano[4,3,2-de]quinolin-7-yl)-8-methyl-[1,2,3]triazolo[1,5-a]quinolin-7-yl)acetic acid] was tested. Which EC50 did it give?
Its EC50 is 78.4 nM.

How did the EC50 turn out when `Cc1cc2c(ccc(=O)n2Cc2cc(F)cc(C(F)(F)F)c2)c(-c2ccc3c4c(ccnc24)CCO3)c1[C@H](OC(C)(C)C)C(=O)O` (atropisomer, axis not shown) [Example 27, (S)-2-tert-Butoxy-2-((R)-5-(2,3-dihydropyrano[4,3,2-de]quinolin-7-yl)-1-(3-fluoro-5-(trifluoromethyl)benzyl)-7-methyl-2-oxo-1,2-dihydroquinolin-6-yl)acetic acid] was run?
The EC50 was 53.5 nM.

`Cc1cc2c(ccc(=O)n2Cc2cccc(S(C)(=O)=O)c2)c(-c2ccc3c4c(ccnc24)CCO3)c1[C@H](OC(C)(C)C)C(=O)O` (atropisomer, axis not shown) [Example 2, (S)-2-tert-Butoxy-2-((R)-5-(2,3-dihydropyrano[4,3,2-de]quinolin-7-yl)-7-methyl-1-(3-(methylsulfonyl)benzyl)-2-oxo-1,2-dihydroquinolin-6-yl)acetic acid] was tested. Which EC50 did it give?
The EC50 was 460 nM.

How did the EC50 turn out when `Cc1cc2c(ccc(=O)n2-c2cccc(NS(C)(=O)=O)c2)c(-c2ccc3c4c(ccnc24)CCO3)c1[C@H](OC(C)(C)C)C(=O)O` (atropisomer, axis not shown) [Example 36, (S)-2-tert-Butoxy-2-((R)-5-(2,3-dihydropyrano[4,3,2-de]quinolin-7-yl)-7-methyl-1-(3-(methylsulfonamido)phenyl)-2-oxo-1,2-dihydroquinolin-6-yl)acetic acid] was run?
The EC50 was 37400 nM.

Which EC50 does the source give for `Cc1cc2nc(C#N)ccc2c(-c2ccc3c4c(ccnc24)CCO3)c1[C@H](OC(C)(C)C)C(=O)O` (atropisomer, axis not shown) [Example 50, (S)-2-tert-Butoxy-2-((R)-2-cyano-5-(2,3-dihydropyrano[4,3,2-de]quinolin-7-yl)-7-methylquinolin-6-yl)acetic acid] here?
Its EC50 is 166 nM.

`Cc1cc2nc(OCc3cccc(S(C)(=O)=O)c3)ccc2c(-c2ccc3c4c(ccnc24)CCO3)c1[C@H](OC(C)(C)C)C(=O)O` (atropisomer, axis not shown) [Example 4, (S)-2-tert-Butoxy-2-((R)-5-(2,3-dihydropyrano[4,3,2-de]quinolin-7-yl)-7-methyl-2-(3-(methylsulfonyl)benzyloxy)quinolin-6-yl)acetic acid] was tested. Which EC50 did it give?
Its EC50 is 13.6 nM.

Which EC50 does the source give for `Cc1cc2c(ccc(=O)n2CCCc2ccccc2)c(-c2ccc3c4c(ccnc24)CCO3)c1[C@H](OC(C)(C)C)C(=O)O` (atropisomer, axis not shown) [Example 24, (S)-2-tert-Butoxy-2-((R)-5-(2,3-dihydropyrano[4,3,2-de]quinolin-7-yl)-7-methyl-2-oxo-1-(3-phenylpropyl)-1,2-dihydroquinolin-6-yl)acetic acid] here?
Its EC50 is 687 nM.

`Cc1cc2nc(OCc3ccccc3S(C)(=O)=O)ccc2c(-c2ccc3c4c(ccnc24)CCO3)c1[C@H](OC(C)(C)C)C(=O)O` (atropisomer, axis not shown) [Example 10, (S)-2-tert-Butoxy-2-((R)-5-(2,3-dihydropyrano[4,3,2-de]quinolin-7-yl)-7-methyl-2-(2-(methylsulfonyl)benzyloxy)quinolin-6-yl)acetic acid] was tested. Which EC50 did it give?
The EC50 was 8.63 nM.

With `COc1cc(Cn2c(=O)ccc3c(-c4ccc5c6c(ccnc46)CCO5)c([C@H](OC(C)(C)C)C(=O)O)c(C)cc32)cc(OC)c1` (atropisomer, axis not shown) [Example 33, (S)-2-tert-Butoxy-2-((R)-5-(2,3-dihydropyrano[4,3,2-de]quinolin-7-yl)-1-(3,5-dimethoxybenzyl)-7-methyl-2-oxo-1,2-dihydroquinolin-6-yl)acetic acid] as the molecule, how does the EC50 read?
Its EC50 is 133 nM.

How did the EC50 turn out when `Cc1cc2c(ccc(=O)n2Cc2cccc(C(F)F)c2)c(-c2ccc3c4c(ccnc24)CCO3)c1[C@H](OC(C)(C)C)C(=O)O` (atropisomer, axis not shown) [Example 30, (S)-2-tert-Butoxy-2-((R)-1-(3-(difluoromethyl)benzyl)-5-(2,3-dihydropyrano[4,3,2-de]quinolin-7-yl)-7-methyl-2-oxo-1,2-dihydroquinolin-6-yl)acetic acid] was run?
The EC50 was 34.7 nM.

With `Cc1cc2nc(C(C)(F)F)ccc2c(-c2ccc3c4c(ccnc24)CCO3)c1[C@H](OC(C)(C)C)C(=O)O` (atropisomer, axis not shown) [Example 52, (S)-2-tert-Butoxy-2-((R)-2-(1,1-difluoroethyl)-5-(2,3-dihydropyrano[4,3,2-de]quinolin-7-yl)-7-methylquinolin-6-yl)acetic acid] as the molecule, how does the EC50 read?
The EC50 was 65.1 nM.

How did the EC50 turn out when `Cc1cc2c(ccc(=O)n2Cc2ccccc2OC(F)(F)F)c(-c2ccc3c4c(ccnc24)CCO3)c1[C@H](OC(C)(C)C)C(=O)O` (atropisomer, axis not shown) [Example 15, (S)-2-tert-Butoxy-2-((R)-5-(2,3-dihydropyrano[4,3,2-de]quinolin-7-yl)-7-methyl-2-oxo-1-(2-(trifluoromethoxy)benzyl)-1,2-dihydroquinolin-6-yl)acetic acid] was run?
The EC50 was 359 nM.

Same assay, conditions: MT-4 cells infected with HIV-IIIb, 5 days of incubation, CellTiter-Glo readout

For `CCCC(C)(C)O[C@H](C(=O)O)c1c(C)cc2nc(C)ccc2c1-c1ccc2c3c(ccnc13)CCO2` (atropisomer, axis not shown) [Example 39, (2S)-2-((R)-5-(2,3-Dihydropyrano[4,3,2-de]quinolin-7-yl)-2,7-dimethylquinolin-6-yl)-2-(2-methylpentan-2-yloxy)acetic acid], which EC50 is on record?
Its EC50 is 12.3 nM.

Which EC50 does the source give for `CCCC(C)(C)O[C@H](C(=O)O)c1c(C)cc2nc(C)ccc2c1-c1ccc2c3c(ccnc13)CCO2` (atropisomer, axis not shown) [Example 40, (2S)-2-((S)-5-(2,3-Dihydropyrano[4,3,2-de]quinolin-7-yl)-2,7-dimethylquinolin-6-yl)-2-(2-methylpentan-2-yloxy)acetic acid] here?
Its EC50 is 2760 nM.
